According to US8791148B2, “Substituted benzimidazolone derivatives, medicaments comprising them and their use” (AbbVie Deutschland GmbH & Co. KG, priority 2006, dated 2014):
pKi: −log10 of the molar value.

target: T1, human vasopressin V1b receptor (Homo sapiens, UniProt P47901); assay: Vasopressin V1b receptor binding assay; settings: membranes from CHO-K1 cells with stably expressed human V1b receptors; displacement of 1.5 nM 3H-AVP; read-out: V1b receptor affinity (affinity constant Ki)
T1 construct: expressed in transfected cells; host or cells: CHO-K1 (cell line hV1b-3H2_CHO), membrane preparation
T1 sequence (P47901 1-424): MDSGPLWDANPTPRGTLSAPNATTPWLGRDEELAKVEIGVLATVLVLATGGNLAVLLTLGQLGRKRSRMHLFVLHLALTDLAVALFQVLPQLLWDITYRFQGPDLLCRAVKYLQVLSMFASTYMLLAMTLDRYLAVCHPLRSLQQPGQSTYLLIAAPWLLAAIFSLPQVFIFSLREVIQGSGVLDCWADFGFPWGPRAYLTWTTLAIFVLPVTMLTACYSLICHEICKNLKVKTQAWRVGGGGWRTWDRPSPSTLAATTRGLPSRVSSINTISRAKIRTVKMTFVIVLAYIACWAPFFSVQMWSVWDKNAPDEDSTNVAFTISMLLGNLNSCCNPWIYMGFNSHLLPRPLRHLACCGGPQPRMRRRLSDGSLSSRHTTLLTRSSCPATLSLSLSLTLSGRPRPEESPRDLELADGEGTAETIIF
Procedure: Vasopressin V1b Receptor Binding Assay:
The test substances were dissolved in a concentration of 10^−2 M in DMSO and further diluted to 5×10^−4 M to 5×10^−9 M in DMSO. This series of DMSO predilutions was diluted 1:10 with assay buffer. The substance concentration was again diluted 1:5 in the assay mixture (2% DMSO in the mixture).
The membrane pellet was again homogenized and centrifuged as described and then taken up in 50 mM Tris-HCl, pH 7.4, homogenized and stored in aliquots frozen in liquid nitrogen at −190° C.
The incubation buffer was: 50 mM Tris, 10 mM MgCl2, 0.1% BSA, pH 7.4. […] The nonspecific binding was determined with 1 uM AVP (Bachem #H1780). All determinations were carried out as triplicate determinations. After incubation (60 minutes at room temperature), the free radioligand was removed by vacuum filtration (Skatron cell harvester 7000) through Wathman GF/B glass fiber filter mats, and the filters were transferred into scintillation vials. The liquid scintillation measurement took place in a Tricarb model 2000 or 2200CA instrument (Packard). Conversion of the measured cpm into dpm was carried out with the aid of a standard quench series.
The binding parameters were calculated by nonlinear regression in SAS.
The above assay was used to measure the affinities of the compounds of the invention for the human vasopressin V1b receptor and to determine the affinity constants (Ki).

| SMILES | pKi |
| --- | --- |
| COc1ccc(S(=O)(=O)n2c(=O)n(CC(=O)N3CCN(c4ccncc4)CC3)c3cc(Cl)ccc32)cc1 [Example 24, 5-Chloro-1-(4-methoxybenzenesulfonyl)-3-[2-oxo-2-(4-pyridin-4-ylpiperazin-1-yl)-ethyl]-1,3-dihydrobenzimidazol-2-one] | 6.30 to 7.00 |
| COc1ccc(S(=O)(=O)n2c(=O)n(CC(=O)N3CCN(c4ccncc4)CC3)c3cc(Cl)ccc32)c(OC)c1 [Example 25, 5-Chloro-1-(2,4-dimethoxybenzenesulfonyl)-3-[2-oxo-2-(4-pyridin-4-ylpiperazin-1-yl)-ethyl]-1,3-dihydrobenzimidazol-2-one] | 6.30 to 7.00 |
| N#Cc1ccc(S(=O)(=O)n2c(=O)n(CC(=O)N3CCN(c4ccncc4)CC3)c3cc(Cl)ccc32)cc1 [Example 26, 4-{5-Chloro-2-oxo-3-[2-oxo-2-(4-pyridin-4-ylpiperazin-1-yl)ethyl]-2,3-dihydrobenzimidazole-1-sulfonyl}benzonitrile] | 5.00 to 6.30 |
| COc1ccc(S(=O)(=O)n2c(=O)n(C(Cc3ccccc3)C(=O)N3CCN(c4ccncc4)CC3)c3cc(Cl)ccc32)cc1 (stereo not drawn) [Example 27, 3-[1-Benzyl-2-oxo-2-(4-pyridin-4-ylpiperazin-1-yl)ethyl]-5-chloro-1-(4-methoxybenzenesulfonyl)-1,3-dihydrobenzimidazol-2-one] | 6.30 to 7.00 |
| COc1ccc(S(=O)(=O)n2c(=O)n(C(Cc3ccccc3)C(=O)N3CCN(c4ccncc4)CC3)c3cc(Cl)ccc32)c(OC)c1 (stereo not drawn) [Example 28, 3-[1-Benzyl-2-oxo-2-(4-pyridin-4-ylpiperazin-1-yl)ethyl]-5-chloro-1-(2,4-dimethoxybenzenesulfonyl)-1,3-dihydrobenzimidazol-2-one] | > 7.00 |
| N#Cc1ccc(S(=O)(=O)n2c(=O)n(C(Cc3ccccc3)C(=O)N3CCN(c4ccncc4)CC3)c3cc(Cl)ccc32)cc1 (stereo not drawn) [Example 29, 4-{3-[1-Benzyl-2-oxo-2-(4-pyridin-4-ylpiperazin-1-yl)ethyl]-5-chloro-2-oxo-2,3-dihydrobenzimidazol-1-sulfonyl}-benzonitrile] | 5.00 to 6.30 |
| COc1ccc(S(=O)(=O)n2c(=O)n(C(C)C(=O)N3CCN(c4ccncc4)CC3)c3cc(Cl)ccc32)cc1 (stereo not drawn) [Example 30, 5-Chloro-1-(4-methoxybenzenesulfonyl)-3-[1-methyl-2-oxo-2-(4-pyridin-4-ylpiperazin-1-yl)-ethyl]-1,3-dihydrobenzimidazol-2-one] | 5.00 to 6.30 |
| COc1ccc(S(=O)(=O)n2c(=O)n(C(C)C(=O)N3CCN(c4ccncc4)CC3)c3cc(Cl)ccc32)c(OC)c1 (stereo not drawn) [Example 31, 5-Chloro-1-(2,4-dimethoxybenzenesulfonyl)-3-[1-methyl-2-oxo-2-(4-pyridin-4-ylpiperazin-1-yl)ethyl]-1,3-dihydrobenzimidazol-2-one] | 6.30 to 7.00 |
| CC(C(=O)N1CCN(c2ccncc2)CC1)n1c(=O)n(S(=O)(=O)c2ccc(C#N)cc2)c2ccc(Cl)cc21 (stereo not drawn) [Example 32, 4-{5-Chloro-3-[1-methyl-2-oxo-2-(4-pyridin-4-ylpiperazin-1-yl)ethyl]-2-oxo-2,3-dihydrobenzimidazole-1-sulfonyl}benzonitrile] | 5.00 to 6.30 |
| COc1ccc(C(C(=O)N2CCN(c3ccncc3)CC2)n2c(=O)n(S(=O)(=O)c3ccc(OC)cc3)c3ccc(Cl)cc32)cc1 (stereo not drawn) [Example 33, 5-Chloro-1-(4-methoxybenzenesulfonyl)-3-[1-(4-methoxyphenyl)-2-oxo-2-(4-pyridin-4-ylpiperazin-1-yl)-ethyl]-1,3-dihydrobenzimidazol-2-one] | 6.30 to 7.00 |
| CN1CCC(N2CCN(C(=O)C(c3ccccc3)n3c(=O)n(S(=O)(=O)c4cccc5cccnc45)c4cc(Cl)c(Cl)cc43)CC2)CC1 (stereo not drawn) [Example 35, 5,6-Dichloro-1-{2-[4-(1-methylpiperidin-4-yl)piperazin-1-yl]-2-oxo-1-phenylethyl}-3-(quinoline-8-sulfonyl)-1,3-dihydrobenzimidazol-2-one] | 5.00 to 6.30 |
| COc1ccc(S(=O)(=O)n2c(=O)n(C(C(=O)N3CCN(C4CCN(C)CC4)CC3)c3ccccc3)c3cc(Cl)c(Cl)cc32)cc1 (stereo not drawn) [Example 36, 5,6-Dichloro-1-(4-methoxybenzenesulfonyl)-3-{2-[4-(1-methylpiperidin-4-yl)piperazin-1-yl]-2-oxo-1-phenylethyl}-1,3-dihydrobenzimidazol-2-one] | 5.00 to 6.30 |
| COc1ccc(S(=O)(=O)n2c(=O)n(C(C(=O)N3CCN(C4CCN(C)CC4)CC3)c3ccccc3)c3ccc(Cl)cc32)c(OC)c1 (stereo not drawn) [Example 37, 5-Chloro-3-(2,4-dimethoxybenzenesulfonyl)-1-{2-[4-(1-methylpiperidin-4-yl)piperazin-1-yl]-2-oxo-1-phenylethyl}-1,3-dihydrobenzimidazol-2-one] | 5.00 to 6.30 |
| COc1ccc(S(=O)(=O)n2c(=O)n(C(C(=O)N3CCN(C4CCN(C)CC4)CC3)c3ccccc3)c3ccc(Cl)cc32)cc1 (stereo not drawn) [Example 38, 5-Chloro-3-(4-methoxybenzenesulfonyl)-1-{2-[4-(1-methylpiperidin-4-yl)piperazin-1-yl]-2-oxo-1-phenylethyl}-1,3-dihydrobenzimidazol-2-one] | 6.30 to 7.00 |
| CN1CCC(N2CCN(C(=O)C(c3ccccc3)n3c(=O)n(S(=O)(=O)c4ccc(C#N)cc4)c4cc(Cl)ccc43)CC2)CC1 (stereo not drawn) [Example 39, 4-(6-Chloro-3-{2-[4-(1-methylpiperidin-4-yl)piperazin-1-yl]-2-oxo-1-phenylethyl}-2-oxo-2,3-dihydrobenzimidazole-1-sulfonyl)benzonitrile] | 5.00 to 6.30 |

Further lines, results first:

| pKi | SMILES |
| --- | --- |
| 5.00 to 6.30 | O=C(C(c1ccccc1)n1c(=O)n(S(=O)(=O)c2cccc3cccnc23)c2cc(Cl)c(Cl)cc21)N1CCN(c2ccncc2)CC1 (stereo not drawn) [Example 40, 5,6-Dichloro-1-[2-oxo-1-phenyl-2-(4-pyridin-4-ylpiperazin-1-yl)ethyl]-3-(quinoline-8-sulfonyl)-1,3-dihydrobenzimidazol-2-one] |
| 5.00 to 6.30 | COc1ccc(S(=O)(=O)n2c(=O)n(C(C(=O)N3CCN(c4ccncc4)CC3)c3ccccc3)c3ccccc32)cc1 (stereo not drawn) [Example 41, 1-(4-Methoxybenzenesulfonyl)-3-[2-oxo-1-phenyl-2-(4-pyridin-4-ylpiperazin-1-yl)ethyl]-1,3-dihydrobenzimidazol-2-one] |
| 5.00 to 6.30 | O=C(C(c1ccccc1)n1c(=O)n(S(=O)(=O)c2ccc(OC(F)(F)F)cc2)c2ccc(Cl)cc21)N1CCN(c2ccncc2)CC1 (stereo not drawn) [Example 42, 5-Chloro-3-[2-oxo-1-phenyl-2-(4-pyridin-4-ylpiperazin-1-yl)ethyl]-1-(4-trifluoromethoxybenzenesulfonyl)-1,3-dihydrobenzimidazol-2-one] |
| 5.00 to 6.30 | COc1cc(C)ccc1S(=O)(=O)n1c(=O)n(C(C(=O)N2CCN(c3ccncc3)CC2)c2ccccc2)c2cc(Cl)ccc21 (stereo not drawn) [Example 43, 5-Chloro-1-(2-methoxy-4-methyl-benzenesulfonyl)-3-[2-oxo-1-phenyl-2-(4-pyridin-4-ylpiperazin-1-yl)ethyl]-1,3-dihydrobenzimidazol-2-one] |
| 6.30 to 7.00 | O=C(C(c1ccccc1)n1c(=O)n(S(=O)(=O)c2cccs2)c2ccc(Cl)cc21)N1CCN(c2ccncc2)CC1 (stereo not drawn) [Example 44, 5-Chloro-3-[2-oxo-1-phenyl-2-(4-pyridin-4-ylpiperazin-1-yl)ethyl]-1-(thiophene-2-sulfonyl)-1,3-dihydrobenzimidazol-2-one] |
| 6.30 to 7.00 | COc1ccccc1S(=O)(=O)n1c(=O)n(C(C(=O)N2CCN(c3ccncc3)CC2)c2ccccc2)c2cc(Cl)ccc21 (stereo not drawn) [Example 45, 5-Chloro-1-(2-methoxybenzenesulfonyl)-3-[2-oxo-1-phenyl-2-(4-pyridin-4-ylpiperazin-1-yl)ethyl]-1,3-dihydrobenzimidazol-2-one] |
| 6.30 to 7.00 | COc1ccc(S(=O)(=O)n2c(=O)n(C(C(=O)N3CCN(c4ccncc4)CC3)c3ccccc3)c3cc(C#N)ccc32)cc1 (stereo not drawn) [Example 46, 1-(4-Methoxybenzenesulfonyl)-2-oxo-3-[2-oxo-1-phenyl-2-(4-pyridin-4-ylpiperazin-1-yl)ethyl]-2,3-dihydro-1H-benzimidazole-5-carbonitrile] |
| 6.30 to 7.00 | O=C(C(c1ccccc1)n1c(=O)n(S(=O)(=O)c2ccccc2)c2ccc(Cl)cc21)N1CCN(c2ccncc2)CC1 (stereo not drawn) [Example 47, 1-Benzenesulfonyl-5-chloro-3-[2-oxo-1-phenyl-2-(4-pyridin-4-ylpiperazin-1-yl)ethyl]-1,3-dihydrobenzimidazol-2-one] |
| 5.00 to 6.30 | COc1ccc(S(=O)(=O)n2c(=O)n(C(C(=O)N3CCN(c4ccncc4)CC3)c3ccccc3)c3cc(C#N)ccc32)c(OC)c1 (stereo not drawn) [Example 48, 1-(2,4-Dimethoxybenzenesulfonyl)-2-oxo-3-[2-oxo-1-phenyl-2-(4-pyridin-4-ylpiperazin-1-yl)-ethyl]-2,3-dihydro-1H-benzimidazole-5-carbonitrile] |
